Assay results published in patent US7429673B2, “TRPV1 agonists, formulations containing them and uses thereof” (priority 2004, dated 2008).
Read-outs that look alike come from different tables or passages of the source.

Legend:
human TRPV1 = target: T1, human TRPV1 (Homo sapiens, UniProt Q8NER1); assay: intracellular calcium in HEK-293 cells overexpressing human TRPV1; format: cell-based; conditions: 4 μM ionomycin as maximum reference
T1 construct: expressed in transfected cells; host or cells: HEK-293
T1 sequence (Q8NER1 whole entry): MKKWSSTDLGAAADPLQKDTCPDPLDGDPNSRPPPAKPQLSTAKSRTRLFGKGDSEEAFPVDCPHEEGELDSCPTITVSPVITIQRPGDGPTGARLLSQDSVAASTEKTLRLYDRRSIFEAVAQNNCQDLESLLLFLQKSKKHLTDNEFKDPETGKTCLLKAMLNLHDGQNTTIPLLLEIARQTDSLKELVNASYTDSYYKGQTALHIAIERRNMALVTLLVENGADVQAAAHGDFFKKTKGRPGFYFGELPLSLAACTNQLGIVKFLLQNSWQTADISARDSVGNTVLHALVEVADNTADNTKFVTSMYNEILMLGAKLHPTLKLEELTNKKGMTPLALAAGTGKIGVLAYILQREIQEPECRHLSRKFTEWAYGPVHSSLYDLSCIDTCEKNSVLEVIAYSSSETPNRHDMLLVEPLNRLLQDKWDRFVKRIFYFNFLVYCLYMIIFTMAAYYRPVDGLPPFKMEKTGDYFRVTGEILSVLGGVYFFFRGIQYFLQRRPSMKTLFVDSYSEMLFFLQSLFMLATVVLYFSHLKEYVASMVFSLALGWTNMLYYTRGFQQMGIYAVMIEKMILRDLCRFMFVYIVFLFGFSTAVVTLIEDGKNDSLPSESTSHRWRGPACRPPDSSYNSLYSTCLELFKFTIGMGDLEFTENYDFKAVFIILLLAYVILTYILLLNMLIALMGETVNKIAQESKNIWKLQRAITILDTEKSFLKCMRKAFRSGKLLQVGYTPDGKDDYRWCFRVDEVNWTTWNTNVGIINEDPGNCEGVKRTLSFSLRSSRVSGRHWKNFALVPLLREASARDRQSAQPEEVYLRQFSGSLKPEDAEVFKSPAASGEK

Sprague Dawley rats = assay: in vivo test of induced urinary incontinence (partial urethral obstruction); design: species or system rat; conditions: operated rats; for N^o of minctions per hour: 8 weeks after urethral obstruction, instilled in the bladder in ethanol at 50 nM for 30 min; for number of minctions per hour, result in words: instilled in the bladder at 50 nM for 30 min
Procedure: The activity of the compound of example 2 was also evaluated in rats through the in vivo test of induced urinary incontinence.
Sprague Dawley rats (250±10 g) were anaesthetized with chloral hydrate. The urinary bladder was opened through an incision along the abdomen median line, and the adipose tissue surrounding the urethra and ureters was removed. The proximal urethra was then tied up with non-absorbable surgery thread to create partial urethral obstruction.
On the treatment day, the compound of example 2, the compound prepared according to Appendino et al. and resiniferotoxin as the reference standard were solubilised in ethanol and instilled in the bladder at the concentration of 50 nM. The instillation lasted 30 min: during this period the infusion pump for the saline was turned off. After incubation, the bladder was emptied of any medicament solution, then the infusion pump was turned on again.

[1] = in DMSO, read-out: pEC50 DMSO (pEC50 values for TPVR1) (converted)
[2] = in methanol, read-out: pEC50 methanol (pEC50 values for TPVR1) (converted)

SMILES | EC50 (human TRPV1; [1]) | N^o of minctions per hour (Sprague Dawley rats) | number of minctions per hour, result in words (Sprague Dawley rats) | EC50 (human TRPV1; [2]) | also measured
CCCCCC[C@H](C/C=C\CCCCCCCC(=O)NCc1ccc(O)c(OC)c1)OC(C)=O | 0.501 nM |  |  |  | pEC50 methanol (pEC50 values for TPVR1) (human TRPV1; in methanol): 9.40 ± 0.18
CCCCCC[C@H](C/C=C\CCCCCCCC(=O)NCc1ccc(O)c(OC)c1)OC(=O)Cc1ccccc1 [Compound of example 2, 12-Phenylacetyl Rinvanil] |  | 19 ± 2 per hour | remained similar to that of non-operated animals |  | EC50 (human TRPV1; pEC50 DMSO (pEC50 values for TPVR1), in DMSO): 0.102 nM; EC50 (human TRPV1; pEC50 methanol (pEC50 values for TPVR1), in methanol): 0.0661 nM
CCCCCC[C@H](C/C=C\CCCCCCCC(=O)NCc1ccc(O)c(OC)c1)OC(=O)c1ccccc1 [Compound of example 9, 12-Benzoyl Rinvanil] | 0.129 nM |  |  | 0.288 nM | 
CCCCCC[C@H](CC1CC1CCCCCCCC(=O)NCc1ccc(O)c(OC)c1)OC(=O)Cc1ccccc1 (some centres unmarked) [Compound of example 12, 9,10-Methylen-12-Phenylacetyl Rinvanil I] | 0.12 nM |  |  | 0.158 nM | 
CCCCCC[C@H](CC1OC1CCCCCCCC(=O)NCc1ccc(O)c(OC)c1)OC(=O)Cc1ccccc1 (some centres unmarked) [Compound of example 15, 9,10-Epoxy-12-Phenylacetyl Rinvanil] | 5.37 nM |  |  | 4.07 nM | 
C=C(C)[C@]12C[C@@H](C)[C@@]34O[C@](Cc5ccccc5)(O[C@@H]1[C@@H]3C=C(COC(=O)Cc1ccc(O)c(OC)c1)C[C@]1(O)C(=O)C(C)=C[C@@H]41)O2 [Resiniferotoxin, resiniferotoxin, reference compound] |  | 17 ± 2 per hour | remained similar to that of non-operated animals |  | 
